From BigSolDB 2.1

O=C(O)CC(O)C(=O)O (stereo unspecified)
solubility (mole fraction)
Settings | 298.15 K | 303.15 K | 308.15 K | 313.15 K | 318.15 K | 323.15 K | 328.15 K | 333.15 K
in ethanol | 0.109 | 0.12 | 0.136 | 0.148 | 0.165 | 0.184 | 0.207 | 0.227
in water | 0.15 | 0.161 | 0.178 | 0.196 | 0.213 | 0.229 | 0.249 | 0.271
